Results from US9505798B2, “Steroid compounds as RORyt modulators and uses thereof” (New York University, priority 2010, dated 2016).

Tested on: experimental autoimmune encephalomyelitis (EAE)
Test: Active EAE (MOG35-55/CFA) in C57BL/6 mice
Assay type: in vivo, mouse
Settings: IP daily from day 2

**Q.** Which “EAE onset and severity of progression” value does the source give for `C[C@]12CC[C@H](O)C[C@H]1CC[C@@H]1[C@@H]2C[C@@H](O)[C@]2(C)[C@@H](C3=CC(=O)OC3)CC[C@]12O` [digoxigenin, Digoxigenin] here?
**A.** no effect

Target: T1, mouse RORγt (Mus musculus, UniProt P51450)
T1 construct: mouse RORγt (amino acids 79 to the carboxyl terminal end); expressed in transfected cells
T1 sequence (P51450 79-495 isoform P51450-2): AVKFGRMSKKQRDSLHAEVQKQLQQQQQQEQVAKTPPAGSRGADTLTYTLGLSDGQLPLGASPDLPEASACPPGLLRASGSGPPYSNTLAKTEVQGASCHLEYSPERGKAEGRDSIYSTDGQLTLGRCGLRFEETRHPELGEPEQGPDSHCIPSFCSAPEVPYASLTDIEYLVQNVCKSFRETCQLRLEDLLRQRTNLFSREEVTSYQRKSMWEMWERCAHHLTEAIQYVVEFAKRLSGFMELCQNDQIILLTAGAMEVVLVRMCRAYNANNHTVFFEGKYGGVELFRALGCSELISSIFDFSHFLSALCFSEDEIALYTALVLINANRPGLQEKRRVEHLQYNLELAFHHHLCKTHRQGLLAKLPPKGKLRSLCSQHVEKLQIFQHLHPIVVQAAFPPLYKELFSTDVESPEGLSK
Test: Drosophila S2 cell RORγt luciferase reporter
Assay type: cell-based
Settings: not given
Description: The Drosophila S2 cell line was originally purchased from Invitrogen and was maintained in Schneider's medium supplemented with 10% heat-inactivated bovine fetal calf serum and antibiotics (Invitrogen). […] The resulting chimeric gene was subcloned into the copper inducible pMT/V5-His A vector (Invitrogen). […] Coding sequences for firefly luciferase (Promega) were PCR amplified and subcloned into pUAST vector containing Gal4 binding enhancer sequences. Renilla luciferase construct under the polIII promoter was obtained from Dr. Dasgupta's laboratory (NYU medical center). In order to generate stable cell lines, cells were co-transfected with pMT-G4 DBD-RORγt, pMT-G4 DBD-RORα, pMT-G4 DBD-DHR3, or pMT-G4 DBDVP16 and pHygro plasmids (Invitrogen) and screened for resistant colonies in the presence of hygromycin (0.3 mg/mL). […] Using similar methods, stable clones with genomic integration of the luciferase reporters and other reporters were generated such as pMT-RORα_luc, pMT-DHR3_Luc, or pMT-VP16_luc.
(§1) The following representative compounds are tested for their RORγt inhibitory activity and toxicity.
Promega Dual-Glo system is widely used for HTS as the luciferase substrates. Cell culture medium was reduced to the final volume of 10 μl or less and 10 μl of Dual-glo and 10 μl of Stop-glo luciferase substrates were added in a sequencial manner (Promega). Firefly and Renilla luciferase activity was determined by measuring luminescence signals using an automated 384-well plate reader equipped with multiple stack units (such as the Analyst GT or Envision plate readers).
10,000 Drosophila stable S2 cells with genomic integration of the Cu2+-inducible G4 DBD-mouse RORγ construct were transfected with 5 ng of pUASTfirefly luciferase and 7 ng of Pol III-Renilla luciferase and dispensed into white bottom-tissue culture 384-well plates (Corning). […] The following morning, Stop-glo luciferase substrates (Promega) were used to measure luciferase activity.
The Drosophila S2 cell line was originally purchased from Invitrogen and was maintained in Schneider's Drosophila medium supplemented with 10% heat-inactivated bovine fetal calf serum and 1× antibiotic-antimycotic solution (Invitrogen). […] The resulting chimeric gene was subcloned into the copper inducible pMT/V5-His A vector (Invitrogen) and into the constitutive pAc vector. […] Coding sequences for firefly luciferase (Promega) were PCR amplified and subcloned into the pUAST vector containing five Gal4 binding enhancer sequences. The Renilla luciferase construct under a pol III promoter and the pAc vector were obtained from R. Dasgupta (NYU School of Medicine). To generate cell lines stably expressing various chimeric proteins upon copper addition, S2 cells were co-transfected with pMT plasmids encoding individual G4 DBD chimeric constructs and the pCoHygro plasmid (Invitrogen), before screening for resistant colonies in the presence of hygromycin (0.3 mg/mL). […] The human androgen receptor (hAR) expression plasmid pMK33-hAR and its reporter TAT3-Luc were obtained from M. Garabedian (NYU School of Medicine). […] R1881 (10 nM) and Dafachronic acid (10 μM) were used as ligands for hAR and Daf12. Upon treatment of cells with copper, in 384 well plates, there was specific increase in firefly luciferase activity versus normalized Renilla luciferase activity for all cell lines described above, validating the method for high-throughput screen.
Transfections of firefly and Renilla reporter constructs were performed using the Effectene kit from Qiagen according to the manufacturer's protocol with some modifications.

**Q.** With `CC1O[C@@H](OC2C(C)O[C@H](OC3C(C)O[C@@H](O[C@H]4CC[C@@]5(C)[C@H](CC[C@@H]6[C@@H]5C[C@@H](O)[C@]5(C)[C@@H](C7=CC(=O)OC7Cc7ccccc7O)CC[C@]65O)C4)C[C@H]3O)C[C@H]2O)C[C@@H](O)C1O` (stereo partly drawn) [Compound 18, Digoxin-21-salicylyl] as the molecule, how does the IC50 read?
**A.** < 1 µM

**Q.** For `CC1O[C@@H](OC2C(C)O[C@H](OC3C(C)O[C@@H](O[C@H]4CC[C@@]5(C)[C@H](CC[C@@H]6[C@@H]5C[C@@H](O)[C@]5(C)[C@@H](C7CC(O)OC7Cc7ccccc7O)CC[C@]65O)C4)C[C@H]3O)C[C@H]2O)C[C@@H](O)C1O` (stereo partly drawn) [Compound 20], which IC50 is on record?
**A.** > 20 µM

**Q.** How did the IC50 turn out when `CC(=O)OC1C(C)O[C@@H](OC2C(C)O[C@H](OC3C(C)O[C@@H](O[C@H]4CC[C@@]5(C)[C@H](CC[C@@H]6[C@@H]5C[C@@H](OC(C)=O)[C@]5(C)[C@@H](C7=CC(=O)OC7)CC[C@]65O)C4)C[C@H]3OC(C)=O)C[C@H]2OC(C)=O)C[C@H]1OC(C)=O` (stereo partly drawn) [Compound 21] was run?
**A.** > 20 µM

**Q.** For `CC1O[C@@H](OC2C(C)O[C@H](OC3C(C)O[C@@H](O[C@H]4CC[C@@]5(C)[C@H](CC[C@@H]6[C@@H]5C[C@@H](O)[C@]5(C)[C@@H](C7CC(=O)OC7Cc7ccccc7O)CC[C@]65O)C4)C[C@H]3O)C[C@H]2O)C[C@@H](O)C1O` (stereo partly drawn) [Compound 19], which IC50 is on record?
**A.** 1 to 10 µM

Same assay, conditions: S2 cell RORγt reporter; read-out: IC50

**Q.** Which IC50 does the source give for `COC(=O)C1CCC2(O)C3CCC4CC(OC5CC(O)C(OC6CC(O)C(OC7CC(O)C(O)C(C)O7)C(C)O6)C(C)O5)CCC4(C)C3CC(O)C12C` (stereo not drawn) [Compound 24] here?
**A.** 1 to 10 µM

Same assay, conditions: S2 reporter system

**Q.** `CO[C@H]1C[C@H](O[C@H]2CC[C@@]3(C)[C@H](CC[C@@H]4[C@@H]3CC[C@]3(C)[C@@H](C5=CC(=O)OC5)[C@@H](OC(C)=O)C[C@]43O)C2)O[C@@H](C)[C@@H]1O` [oleandrin, Oleandrin] was tested. Which “effect on RORγ transcriptional activity” value did it give?
**A.** no significant effect

**Q.** Which “effect on RORγ transcriptional activity” value does the source give for `C[C@]12C[C@@H](O)[C@H]3[C@@H](CC[C@]4(O)C[C@@H](O)C[C@@H](O)[C@]34CO)[C@@]1(O)CC[C@@H]2C1=CC(=O)OC1` [ouabagenin, Ouabagenin] here?
**A.** no significant effect

**Q.** For `C[C@H]1O[C@@H](O[C@H]2CC[C@]3(C=O)[C@H]4CC[C@]5(C)[C@@H](C6=CC(=O)OC6)CC[C@]5(O)[C@@H]4CC[C@]3(O)C2)C[C@H](O)[C@@H]1O[C@@H]1O[C@H](CO)[C@@H](O)[C@H](O)[C@H]1O` [erysimoside, Erysimoside], which “effect on RORγ transcriptional activity” value is on record?
**A.** no significant effect

**Q.** Which “effect on RORγ transcriptional activity” value does the source give for `C[C@]12CC[C@H](O)C[C@H]1CC[C@@H]1[C@@H]2CC[C@]2(C)[C@@H](C3=CC(=O)OC3)CC[C@]12O` [digitoxigenin, Digitoxigenin] here?
**A.** no significant effect

**Q.** With `C[C@H]1O[C@@H](O[C@H]2CC[C@@]3(C)[C@H](CC[C@@H]4[C@@H]3C[C@@H](O)[C@]3(C)[C@@H](C5=CC(=O)OC5)CC[C@]43O)C2)C[C@H](O)[C@@H]1O[C@H]1C[C@H](O)[C@H](O[C@H]2C[C@H](O)[C@H](O[C@@H]3O[C@H](CO)[C@@H](O)[C@H](O)[C@H]3O)[C@@H](C)O2)[C@@H](C)O1` [deslanoside, Deslanoside] as the molecule, how does the “effect on RORγ transcriptional activity” value read?
**A.** no significant effect

**Q.** Which “effect on RORγ transcriptional activity” value does the source give for `C[C@@H]1O[C@@H](O[C@H]2C[C@@H](O)[C@]3(CO)[C@H]4[C@H](O)C[C@]5(C)[C@@H](C6=CC(=O)OC6)CC[C@]5(O)[C@@H]4CC[C@]3(O)C2)[C@H](O)[C@H](O)[C@H]1O` [ouabain, Ouabain octahydrate] here?
**A.** no significant effect

**Q.** With `C[C@@H]1O[C@@H](O[C@@H]2C=C3CC[C@@H]4[C@H](CC[C@]5(C)[C@@H](c6ccc(=O)oc6)CC[C@]45O)[C@@]3(C)CC2)[C@H](O)[C@H](O)[C@H]1O` [proscillaridin A, Proscillaridin A] as the molecule, how does the “effect on RORγ transcriptional activity” value read?
**A.** no significant effect

Tested on: human embryonic kidney 293t cell lines
Test: Toxicity on human embryonic kidney 293T cells
Settings: human embryonic kidney 293t cell lines
Procedure: as §1

**Q.** With `CC1O[C@@H](OC2C(C)O[C@H](OC3C(C)O[C@@H](O[C@H]4CC[C@@]5(C)[C@H](CC[C@@H]6[C@@H]5C[C@@H](O)[C@]5(C)[C@@H](C7=CC(=O)OC7Cc7ccccc7O)CC[C@]65O)C4)C[C@H]3O)C[C@H]2O)C[C@@H](O)C1O` (stereo partly drawn) [Compound 18, Digoxin-21-salicylyl] as the molecule, how does the Human cell toxicity read?
**A.** xxx (cytotoxicity between 1-10 μM)

**Q.** For `CC1O[C@@H](OC2C(C)O[C@H](OC3C(C)O[C@@H](O[C@H]4CC[C@@]5(C)[C@H](CC[C@@H]6[C@@H]5C[C@@H](O)[C@]5(C)[C@@H](C7CC(=O)OC7Cc7ccccc7O)CC[C@]65O)C4)C[C@H]3O)C[C@H]2O)C[C@@H](O)C1O` (stereo partly drawn) [Compound 19], which Human cell toxicity is on record?
**A.** xxx (cytotoxicity between 1-10 μM)
